One data set concerns Sprague-Dawley rats. The experiment in a line: Observation of the site of the subcutaneous injection. It counts as in vivo, rat. The conditions noted are these: subcutaneous, in MCT oil, all doses. As for the experimental part: In Vivo Anti-inflammatory Activity and Gastric Toxicity. Groups of four rats were used for all studies. All doses were calculated as equivalent concentrations of Indo. […] For subcutaneous and intramuscular administration, rats were injected with 125-200 μL volumes of the test compositions (IndoH or [Cu2(Indo)4(OH2)2] in MCT oil). The control cohort was injected with equivalent volumes of neat MCT. Subcutaneous injections were made in the lower dorsal surface and intramuscular injections were made in the right hind thigh muscle. Inflammation was induced 1 h after dosing by injection of the formulation by an injection of carrageenan (0.1 mL, 1% w/v in isotonic saline) into the plantar region of the hind paw.

Data set [1] can be described thus: EPR spectroscopic determination of Cu(II) monomer / dissociation of the complex in formulations. It counts as physicochemical. The settings on record: percentage of the total amount of Cu in the composition; X-band EPR, 4 K. As for the experimental part: The synthesis of [Cu2(Indo)4(OH2)2] may result in a product containing a small amount of monomer (typically 5% or less), and this monomer may or may not contain Indo Thus a composition containing [Cu2(Indo)4(OH2)2] may or may not contain a small amount of a Cu(II) monomer containing Indo.
The relative amounts of the Cu(II) monomer in samples of various compositions containing the complex [Cu2(Indo)4(OH2)2] were determined as described below. […]
EPR Spectroscopy. Low temperature (4-110 K) X-band EPR spectra of the compositions containing [Cu2(Indo)4(OH2)2] were measured at X-band frequencies (˜9.5 GHz) using a Bruker EMX EPR spectrometer equipped with a standard ER4120 X band cavity, EMX 035M NMR gaussmeter, EMX 032T field controller, EMX 081 magnet power supply, Bruker EMX 048T microwave bridge control and BVT2000 variable temperature unit and Oxford Instruments E900 continuous flow cryostat (for low temperature data collection). Low temperature X-band EPR Cu(II) spectra of samples of [Cu2(Indo)4(OH2)2] containing less than 0.47 mM Cu(II) were measured using a Bruker ESP 300 spectrometer equipped with a Hewlett Packard 5352B microwave frequency counter, Bruker ER 085C magnet power supply, Bruker ER 032 magnet field control, Bruker ER 023M signal channel and Bruker ESP 1600-1048 microwave bridge controller. […]

The structures appear in SMILES notation.

As to `COc1ccc2c(c1)c(CC(=O)[O-])c(C)n2C(=O)c1ccc(Cl)cc1.COc1ccc2c(c1)c(CC(=O)[O-])c(C)n2C(=O)c1ccc(Cl)cc1.COc1ccc2c(c1)c(CC(=O)[O-])c(C)n2C(=O)c1ccc(Cl)cc1.COc1ccc2c(c1)c(CC(=O)[O-])c(C)n2C(=O)c1ccc(Cl)cc1.O.O.[Cu+2].[Cu+2]` [[Cu2(Indo)4(OH2)2]], in the data set with Sprague-Dawley rats, the “adverse effect at the site of the injection” value was “None of the rats exhibited soreness, swelling, redness or any other adverse effect”. The “Cu(II) monomer (%)” value in data set [1] is “^aThe technique is not applicable to dry powders, however, solid-state [Cu2(Indo)4L2] (L = OH2) contains <1% Cu(II) monomer fraction”.

Source of the values: patent publication US20080039522A1, “Composition Containing a Complex Comprising a Metal Ion and a Carboxylate Ligand Having Anti-Inflammatory Activity” (Medical Therapies Limited, priority 2004, published 2008).
